Laboratory results as given in patent publication US20200087625A1, “METHODS FOR ISOLATING, EXPANDING AND ADMINISTERING CANCER SPECIFIC CD8+ T CELLS” (priority 2017, published 2020).

Test system: 4T1 cells
Experiment: Ex vivo tumor-specific cytotoxicity study
Assay type: cell-based, BALB/c mice
Details: effector to target cell ratio 16:1; vs vehicle
Experimental: FIGS. 23A-23G. Systemic administration of […] induces tumor-specific CD8^+ T cells. (A) Protocol of IV metastasis model. (B) BALB/c mice (n=B-15/group) were i.v. injected with 4T1 cells (2×10^4) on day 0.1V270 (2, 20, or 200 μg/injection) was i.p. administered on days −1, 7, 10, and 14. The numbers of lung nodules were counted on day 21. (C) 200 μg/injection 1V270 was i.p. administered on days −1 or 0 followed by days 7, 10, and 14 where indicated. The numbers of lung nodules were counted on day 21. […] Intracellular granzyme B (D) and IFNγ (E) were analyzed by flow cytometry. […] The percent specific killing was calculated. Data were analyzed by two-way ANOVA using a Bonferroni post hoc test comparing treatment groups against vehicle group. *P<0.05. […]
Tumor-specific cytotoxicity was examined using 4T1 cells as target cells and BALB/3T3 cells as irrelevant cells. […] The frequencies of 4T1 (CFSE high) and BALB/3T3 (CFSE low) cells were determined by flow cytometry, and the percent specific killing was calculated. […]
To examine the role of CD8^+ T cells after systemic 1V270 treatment, mediastinal lymph node (mLN) cells, splenocytes, and lung tissues were analyzed in the IV metastasis model on day 21 (FIGS. 23D-2G). Activation of CD8^+ T cells was assessed by intracellular staining for granzyme B and interferon γ (IFNγ). […]

CCCCCCCCC=CCCCCCCCC(=O)OCC(COP(=O)(O)OCCNC(=O)c1ccc(Cn2c(=O)[nH]c3c(N)nc(OCCOC)nc32)cc1)OC(=O)CCCCCCCC=CCCCCCCCC (stereo not shown) [1V270]
tumor-specific cytotoxicity of CD8+ T cells: significantly higher tumor-specific cytotoxicity
